22 compounds from ChEMBL document CHEMBL4325868, “Design, synthesis and antitubercular activity of 4-alkoxy-triazoloquinolones able to inhibit the M. tuberculosis DNA gyrase” (Eur J Med Chem, 2019) can be followed below.

SMILES strings stand for the structures. In brackets after ≈: the same amount, converted by molar mass.

Series [1] has as its system Mycobacterium tuberculosis. Description: Antitubercular activity against Mycobacterium tuberculosis H37Rv after 7 days by resazurin microtiter assay. Type of series: functional. Particulars: 168 h. A general note: Alamar Blue is a resazurin reagent that responds to reducing activity.
Series [2] in a line: Cytotoxicity against African green monkey Vero cells assessed as cell viability at 100 uM after 72 hrs by MTT assay relative to control. Type of series: cell-based. Particulars: chlorocebus sabaeus, read-out: Activity. (Tetrazolium assays rely on reduction of a dye to a coloured formazan, in cell work by metabolically active cells.)
In series [3] the target is DNA gyrase subunit A/DNA gyrase subunit B (Mycobacterium tuberculosis (strain ATCC 25618 / H37Rv), UniProt P9WG45+P9WG47). The experiment in a line: Inhibition of Mycobacterium tuberculosis DNA gyrase assessed as reduction in supercoiling of relaxed pBR322 DNA substrate after 30 mins by ethidium bromide staining based agarose gel electrophoresis method. In kind it is protein-complex assay.
Sequence of DNA gyrase subunit A/DNA gyrase subunit B (P9WG45 whole entry): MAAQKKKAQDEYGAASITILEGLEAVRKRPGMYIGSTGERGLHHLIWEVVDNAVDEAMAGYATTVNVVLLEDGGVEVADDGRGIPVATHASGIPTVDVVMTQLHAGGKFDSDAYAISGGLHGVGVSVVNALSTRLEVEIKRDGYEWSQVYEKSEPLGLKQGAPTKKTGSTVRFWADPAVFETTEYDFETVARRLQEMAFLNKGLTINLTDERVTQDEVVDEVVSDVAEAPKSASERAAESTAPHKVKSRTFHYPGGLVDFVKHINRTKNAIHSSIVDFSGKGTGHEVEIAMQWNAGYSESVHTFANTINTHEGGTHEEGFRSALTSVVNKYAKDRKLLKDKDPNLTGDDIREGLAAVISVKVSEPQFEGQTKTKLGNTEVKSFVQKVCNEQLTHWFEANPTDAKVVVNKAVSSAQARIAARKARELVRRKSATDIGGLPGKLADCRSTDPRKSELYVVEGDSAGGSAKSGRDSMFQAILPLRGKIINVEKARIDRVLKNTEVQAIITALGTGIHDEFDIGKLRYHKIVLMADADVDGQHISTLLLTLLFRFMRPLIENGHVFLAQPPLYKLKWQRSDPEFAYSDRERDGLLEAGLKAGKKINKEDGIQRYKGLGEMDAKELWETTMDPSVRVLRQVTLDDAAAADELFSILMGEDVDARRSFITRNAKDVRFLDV
Sequence of DNA gyrase subunit A/DNA gyrase subunit B (P9WG47 whole entry): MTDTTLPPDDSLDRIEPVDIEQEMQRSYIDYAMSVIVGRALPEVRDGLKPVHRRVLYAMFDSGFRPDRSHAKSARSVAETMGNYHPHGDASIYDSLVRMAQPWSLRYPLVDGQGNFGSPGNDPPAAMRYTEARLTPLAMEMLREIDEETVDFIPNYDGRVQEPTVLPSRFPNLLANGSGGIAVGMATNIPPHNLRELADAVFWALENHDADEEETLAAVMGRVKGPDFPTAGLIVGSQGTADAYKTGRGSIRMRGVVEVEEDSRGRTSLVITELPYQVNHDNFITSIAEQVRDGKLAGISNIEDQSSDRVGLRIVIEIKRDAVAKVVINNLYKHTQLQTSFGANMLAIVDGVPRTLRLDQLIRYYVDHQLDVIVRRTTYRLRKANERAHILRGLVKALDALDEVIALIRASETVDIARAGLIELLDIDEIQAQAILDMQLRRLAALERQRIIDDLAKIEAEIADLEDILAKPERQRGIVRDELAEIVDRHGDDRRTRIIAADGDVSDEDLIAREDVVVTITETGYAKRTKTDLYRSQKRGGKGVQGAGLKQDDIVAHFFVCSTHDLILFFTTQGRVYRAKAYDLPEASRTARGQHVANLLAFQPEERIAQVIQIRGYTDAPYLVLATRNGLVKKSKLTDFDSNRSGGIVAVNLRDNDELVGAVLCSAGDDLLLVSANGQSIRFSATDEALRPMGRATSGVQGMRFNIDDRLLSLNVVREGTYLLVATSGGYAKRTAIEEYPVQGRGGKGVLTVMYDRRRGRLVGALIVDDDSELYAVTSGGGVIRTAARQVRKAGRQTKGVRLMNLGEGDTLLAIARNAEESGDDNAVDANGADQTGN

Another series deals with Staphylococcus aureus. Description: Antibacterial activity against Staphylococcus aureus ATCC 2913 after overnight incubation by broth dilution assay. In kind it is functional.
For another series, the system named is Salmonella typhimurium. The experiment in a line: Antibacterial activity against Salmonella typhimurium ATCC 14028 after overnight incubation by broth dilution assay. Type of series: functional, Salmonella enterica subsp. enterica serovar Typhimurium. Particulars: Salmonella enterica. A general note: Dilution methods test growth across graded concentrations, often in twofold steps.

For another series, the system named is Enterococcus faecalis. Description: Antibacterial activity against Enterococcus faecalis ATCC 2491 after overnight incubation by broth dilution assay. In kind it is functional.
Another series concerns Escherichia coli. The experiment in a line: Antibacterial activity against Escherichia coli ATCC 15922 after overnight incubation by broth dilution assay. Type of series: functional.
Another series deals with Candida albicans. The experiment in a line: Antifungal activity against Candida albicans after overnight incubation by broth dilution assay. Type of series: functional.
The test system of a further series is Candida tropicalis. Description: Antifungal activity against Candida tropicalis after overnight incubation by broth dilution assay. In kind it is functional.
The test system of series [4] is Mycobacterium tuberculosis. The experiment in a line: Antitubercular activity against Mycobacterium tuberculosis isolate 231 after 7 days by resazurin microtiter assay. Type of series: functional. Particulars: isolate 231, 168 h.
The subject of series [5] is Mycobacterium tuberculosis. The experiment in a line: Antitubercular activity against Mycobacterium tuberculosis isolate 1574 after 7 days by resazurin microtiter assay. In kind it is functional. Particulars: isolate 1574, 168 h.
Series [6] deals with Mycobacterium tuberculosis. Description: Antitubercular activity against Mycobacterium tuberculosis isolate 1777 after 7 days by resazurin microtiter assay. Particulars: isolate 1777, 168 h. Type of series: functional.
Series [7] has as its system Mycobacterium tuberculosis. Description: Antitubercular activity against Mycobacterium tuberculosis isolate 147 after 7 days by resazurin microtiter assay. In kind it is functional. Particulars: isolate 147, 168 h.
In series [8] the test system is Mycobacterium tuberculosis. Description: Antitubercular activity against Mycobacterium tuberculosis isolate 1657 after 7 days by resazurin microtiter assay. Type of series: functional. Particulars: isolate 1657, 168 h.
Series [9] has as its system Mycobacterium tuberculosis. Description: Antitubercular activity against Mycobacterium tuberculosis isolate 1535 after 7 days by resazurin microtiter assay. Particulars: isolate 1535, 168 h. In kind it is functional.
Series [10] deals with Mycobacterium tuberculosis. Description: Antitubercular activity against Mycobacterium tuberculosis isolate 1567 after 7 days by resazurin microtiter assay. Type of series: functional. Particulars: isolate 1567, 168 h.

`CCn1cc(C(=O)O)c(=O)c2cc(OC)c3nn(C)nc3c21`: the MIC in [1] was more than 100 µM. Further, the viability at 72 h, 100 µM in series [2] came to 94.2%.
Compound `COc1cc2c(=O)c(C(=O)O)c[nH]c2c2nnn(C)c12` showed a minimum inhibitory concentration (MIC) in series [1] of more than 100 µM. Also, the viability at 72 h, 100 µM in [2] amounted to 90.2%. The IC50 in series [3] amounted to 91.3 µM.
`CCn1cc(C(=O)O)c(=O)c2cc(F)c3c(nnn3C)c21` returned an MIC in series [1] of more than 100 µM. The viability at 72 h, 100 µM in series [2] turned out to be 95.1%.
Turning to `CCOC(=O)c1cnc2c(cc(OC)c3nnn(C)c32)c1OC`, in series [1], the minimal inhibitory concentration (MIC) was more than 100 µM. The viability at 72 h, 100 µM in [2] amounted to 80.8%.
The like results for `Cn1cc(C(=O)O)c(=O)c2cc([N+](=O)[O-])c3c(nnn3C)c21` were, in that order, more than 100 µM and 88.8%.
The like results for `CCOc1c(C(=O)O)cnc2c1cc(OC)c1nnn(C)c12` were, in that order, more than 100 µM and 83.6%.
For `CCSc1cc2c(=O)c(C(=O)O)cn(C)c2c2nnn(C)c12`, in that order: 50.3 µM (≈ 16 µg/mL) and 87.7%.
In turn, `Cn1cc(C(=O)O)c(=O)c2cc(F)c3c(nnn3C)c21` yielded an MIC in [1] of 57.9 µM (≈ 16 µg/mL). Moreover, the viability at 72 h, 100 µM in [2] was determined as 81.2%.
`CCn1cc(C(=O)O)c(=O)c2cc(OC)c3c(nnn3C)c21` had a minimal inhibitory concentration (MIC) in [1] of 52.9 µM (≈ 16 µg/mL). Further, the viability at 72 h, 100 µM in [2] came to 90.1%.
In series [1], `COC(=O)c1cn(C)c2c(ccc3c2nnn3C)c1=O` registered an MIC of more than 100 µM. Further, the viability at 72 h, 100 µM in series [2] was 91.2%.
The like results for `COc1cc2c(=O)c(C(=O)O)c[nH]c2c2c1nnn2C` were, in that order, more than 100 µM and 92.9%.
The like results for `CCOC(=O)c1cnc2c(cc(OC)c3nnn(C)c32)c1OCC` were, in that order, more than 100 µM and 85.4%.
The like results for `COc1c(C(=O)O)cnc2c1cc(OC)c1nnn(C)c12` were, in that order, more than 100 µM and 85.7%.
On to `CCOc1cc2c(=O)c(C(=O)O)cn(C)c2c2nnn(C)c12`, for which the minimum inhibitory concentration (MIC) in [1] was 6.6 µM (≈ 2 µg/mL); against Staphylococcus aureus, more than 100 µM; against Salmonella typhimurium, more than 100 µM; against Enterococcus faecalis, more than 100 µM; against Escherichia coli it was more than 100 µM; with Candida albicans, more than 100 µM. Further, the MIC against Candida tropicalis was more than 100 µM. The viability at 72 h, 100 µM in series [2] was 94.3%. In addition, the IC50 in series [3] amounted to 28.2 µM.
`CCOc1cc2c(=O)c(C(=O)O)cn(CC)c2c2nnn(C)c12`: the minimum inhibitory concentration (MIC) in [1] came to 25.3 µM (≈ 8 µg/mL). In series [2], the viability at 72 h, 100 µM came out at 92.1%.
Turning to `CCOC(=O)c1cn(C)c2c(cc(OC)c3c2nnn3C)c1=O`, in series [1], the MIC was more than 100 µM. For the same compound, the viability at 72 h, 100 µM in [2] was determined as 92%.
The like results for `CCOC(=O)c1cn(CC)c2c(cc(OC)c3c2nnn3C)c1=O` were, in that order, more than 100 µM and 84.4%.
Regarding `COc1cc2c(=O)c(C(=O)O)cn(C)c2c2nnn(C)c12`, the MIC in [1] stood at 6.9 µM (≈ 1.99 µg/mL); in series [4], 4 µM (≈ 1.15 µg/mL); in series [5], 32 µM (≈ 9.22 µg/mL); in [6], 8 µM (≈ 2.31 µg/mL); in series [7] it was 8 µM (≈ 2.31 µg/mL); in series [8], 4 µM (≈ 1.15 µg/mL). The minimum inhibitory concentration (MIC) in series [9] was 16 µM (≈ 4.61 µg/mL); in series [10], 32 µM (≈ 9.22 µg/mL); against Staphylococcus aureus it was more than 100 µM; in the series with Salmonella typhimurium it was more than 100 µM; in the series with Enterococcus faecalis, more than 100 µM; against Escherichia coli it was more than 100 µM. Moreover, the minimal inhibitory concentration (MIC) with Candida albicans and with Candida tropicalis was more than 100 µM each time. Further, the viability at 72 h, 100 µM in series [2] was 90.4%. Also, in series [3], the IC50 was 27.6 µM.
`CCOC(=O)c1cn(CC)c2c(cc(OC)c3nn(C)nc32)c1=O` returned a minimal inhibitory concentration (MIC) in series [1] of more than 100 µM. The viability at 72 h, 100 µM in series [2] is 79.3%.
For `CCOC(=O)c1cn(CC)c2c(cc(OCC)c3c2nnn3C)c1=O`, in that order: more than 100 µM and 95.1%.
The compound `COc1cc2c(=O)c(C(=O)O)cn(C)c2c2nn(C)nc12` returned an MIC in [1] of 27.8 µM (≈ 8.01 µg/mL). The viability at 72 h, 100 µM in [2] was found to be 89.5%.
The like results for `O=C(O)c1cn(C2CC2)c2cc(N3CCNCC3)c(F)cc2c1=O` [CIPROFLOXACIN] were, in that order, 1.5 µM (≈ 0.497 µg/mL) and 95.2%.

Broadly, the MIC is the lowest concentration that inhibits growth of the organism. As usually defined, the IC50 is the concentration needed to halve the response being measured.
